Literature values, collected in US8648203B2 (priority 2005, dated 2014).

Tests used:
mites = conditions: repeated treatments in the field
[1] = tested on: potato Phycophthora infestans; conditions: field tests

**Q.** With `O=[N+]([O-])c1cc(C(F)(F)F)c(Cl)c([N+](=O)[O-])c1Nc1ncc(C(F)(F)F)cc1Cl` [fluazinam, 3-chloro-N-(3-chloro-5-trifluoromethyl-2-pyridyl)-α,α,α-trifluoro-2,6-dinitro-p-toluidine] as the compound, how does the population of mites (mites) read?
**A.** Its population of mites is “significantly reduce the population of mites”.

**Q.** What about the “activity against potato Phycophthora infestans” value [1] of the same compound?
**A.** Its value is “excellent activity”.
